Reference: paper PMC7838189, “Natural podophyllotoxin analog 4DPG attenuates EMT and colorectal cancer progression via activation of checkpoint kinase 2” (Cell Death Discovery, 2021)

Columns and labels:
[1] = system: HCT-116/5-FU-R cells; assay: Immunocytochemistry of Vimentin; format: cell-based; conditions: 300 nM, 48 h
From the text: 4DPG, a podophyllotoxin class of natural product anticancer compound (Supplementary Fig. S2A) has been recently described by our research group for its potent antitumor and anti-metastatic properties against aggressive cancers[31],[32]. Further, 4DPG augments phosphorylation and activation of Chk2 (Thr68) leading to suppression of EMT and invasiveness of p53-defective cancer cells. To investigate the effect of 4DPG on phosphorylation and expression levels of Chk2 in HCT-116/5-FU-R, SW-620/5-FU-R, and HT-29/5-FU-R cells, we treated these cells for 48 h with increasing concentrations of the compound, and whole-cell lysates were subjected to western blotting analysis. […] To determine the effect of 4DPG on the invasion abilities of these 5-FU-R cells, we performed in situ fluorescent gelatin degradation assay following our pre-standardized protocol[31],[37]. In physiological conditions, this assay mimics the extracellular matrix degradation by aggressive tumor cells undergoing invasion–metastasis process.
Fig. 2 4DPG activates Chk2 and attenuates EMT in 5-FU-R CRC cells. […] G Quantification of the area of degradation through Image J software. n = 3, error bars, mean ± SD; ***P < 0.001. […]

[2] = system: Vimentin–p53 association in SW-620/5-FU-R cells; assay: Immunoprecipitation of Vimentin and p53; format: cell-based; conditions: 300 nM, 48 h, vs ample p53 in vehicle
Experimental: Fig. 3 Chk2-dependent role of 4DPG in modulating p53 and repressing Vimentin expression in 5-FU-R cells. A Immunocytochemistry results showing the Vimentin expression level in SW-620/5-FU-R cells treated/transfected with scramble, SiChk2, scramble plus 4DPG, SiChk2 plus 4DPG, vehicle, PV1019, 4DPG, and PV1019 plus 4DPG for 48 h. Scale bars: 50 µm. […] C Matrigel invasion assay results showing invaded HCT-116/5-FU-R and SW-620/5-FU-R cells following 48 h of transient transfection with GFP and GFP-Chk2 plasmid construct. Scale bars: 50 µm. D Quantification of the number of invaded cells per field from the above experimental conditions. n = 3, error bars, mean ± SD; *P < 0.05, ***P < 0.001. E Immunocytochemistry results displaying Vimentin expression levels in HCT-116/5-FU-R and SW-620/5-FU-R cells after 48 h of transient transfection with pCDNA3 and/or HA-Chk2 plasmid construct. Scale bars: 50 µm. F Immunoprecipitation with Vimentin or p53 followed by western blotting analysis of p53 in SW-620/5-FU-R cells treated with vehicle and/or 4DPG (300 nM) for 48 h. […]
For immunoprecipitation analysis, the previously described procedure was followed with minor modification. […] Following careful washing with lysis buffer, the immunoprecipitates were analyzed by western blotting.

`COc1cc([C@@H]2c3cc4c(cc3C[C@H]3COC(=O)[C@@H]32)OCO4)cc(OC)c1O[C@@H]1O[C@H](CO)[C@@H](O)[C@H](O)[C@H]1O` [4DPG, 4′-demethyl-deoxypodophyllotoxin glucoside] was tested. Which “Vimentin expression level (immunocytochemistry)” value [1] did it give?
The value was “considerable decrease”.

And the “p53 detected in Vimentin pull-down lysates” value [2]?
Its value is “negligible p53 expression”.
